# Measurements reported in patent US20140315809A1, “CALCIMIMETICS AND METHODS FOR THEIR USE” (KAI PHARMACEUTICALS INC., priority 2011, published 2014).
# Where two headings read alike, the source gives them in different places.
# Legend:
# [1] = Single-dose clinical study: pharmacokinetics, noncompartmental analysis; type: in vivo, human; conditions: for clearance / AUC / Cmax / half-life / Vd: human; for Vd: read-out: Vss
# Method: (§1) A clinical study was performed to assess the safety and tolerability of rising single doses of Ac-c(C)arrrar-NH2 (SEQ ID NO:3), administered by IV bolus to patients diagnosed with CKD-BMD and SHPT, and who were receiving hemodialysis. Data were generated to measure changes in patient serum intact PTH (iPTH) and serum calcium as well as bioavailability of the single dose of Ac-c(C)arrrar-NH2 (SEQ ID NO:3).
# (§2) A double-blind, randomized, placebo-controlled, multicenter study in subjects receiving thrice-weekly hemodialysis (HD) was designed and carried out. The major inclusion criteria included hemodialysis for at least 3 months prior to the start of the study, a serum iPTH level greater than 300 pg/mL, a serum cCa (corrected calcium) level greater than or equal to 9.0 mg/dL and receiving of stable doses of active vitamin D or analogs, phosphate binders, and calcium supplements.
# (§3) Cohorts 1, 2 and 3 were conducted with a two-period crossover design. Each cohort enrolled 4 subjects randomized 1:1 to Ac-c(C)arrrar-NH2 (SEQ ID NO:3) followed by placebo or placebo followed by Ac-c(C)arrrar-NH2 (SEQ ID NO:3). The dose levels of Ac-c(C)arrrar-NH2 (SEQ ID NO:3) for Cohorts 1-3 were 5, 10 and 20 mg. Cohort 4 enrolled 8 subjects who were randomized 1:1 to 40 mg Ac-c(C)arrrar-NH2 (SEQ ID NO:3) or placebo in a parallel group. Cohort 5 enrolled 8 subjects were randomized 1:1 to 60 mg Ac-c(C)arrrar-NH2 (SEQ ID NO:3) or placebo in a parallel group.
# (§4) Ac-c(C)arrrar-NH2 (SEQ ID NO:3) or placebo was administered by IV bolus injection 2-4 hours following completion of HD.
# Pharmacokinetic (PK) analysis was performed on samples obtained from the treated subjects to determine bioavailability of the administered Ac-c(C)arrrar-NH2 (SEQ ID NO:3). […] Clearance (CL) and volume of distribution as steady state (Vss) values appear to be dose-independent over the range evaluation. Total clearance of Ac-c(C)arrrar-NH2 (SEQ ID NO:3) was approximately about 2 L/h. Ac-c(C)arrrar-NH2 (SEQ ID NO:3) was readily cleared from the central compartment by hemodialysis.
# [2] = system: patients diagnosed with CKD-BMD and SHPT receiving hemodialysis; assay: Single-dose clinical study: corrected calcium; type: in vivo, human; conditions: single IV bolus 5-60 mg
# Method: as §1
# as §2, with “supplements. […]” for “supplements.”
# Serum iPTH levels were determined using the electrochemiluminescence immunoassay (ECLIA) on the Roche Elecsys® analyzer. Calcium levels were adjusted for albumin <4 g/dL with the following equation: cCa=[measured Ca in mg/dL]+[4-(albumin in g/dL)]×0.8
# The effects of Ac-c(C)arrrar-NH2 (SEQ ID NO:3) administration on serum iPTH and corrected calcium levels was also determined in this study. […] Blood from each subject was then analyzed to determine levels of iPTH and corrected calcium. […]
# [3] = system: patients diagnosed with CKD-BMD and SHPT receiving hemodialysis; assay: Single-dose clinical study: adverse events; type: in vivo, human; conditions: for Adverse Event: Anemia / Adverse Event: Congestive heart failure / Adverse Event: Decreased ionized calcium / Adverse Event: Gastro-esophageal reflux / Adverse Event: Injection site pruritis / Adverse Event: Paresthesias / Adverse Event: Pneumonia / Adverse Event: Toothache / Number of subjects with ≧1 AE: n (%) of subjects
# Method: as §1, §2, §3, §4
# Adverse events were captured through 7 days after study drug administration.
# Adverse events experienced by each of the subjects was recorded for 7 days after administration of the Ac-c(C)arrrar-NH2 (SEQ ID NO:3) or placebo. A single serious adverse event occurred in one subject who had been treated with placebo in the 10 mg dose cohort. The subject discontinued form the study prior to receiving Ac-c(C)arrrar-NH2 (SEQ ID NO:3). There were no reports of nausea, vomiting or diarrhea.
# [4] = system: 5/6 nephrectomy (Nx) rat model of renal insufficiency; assay: PTH suppression in 5/6 Nx rats, daily dosing for 28 days; type: in vivo; conditions: daily 28 days, Ac-c(C)arrrar-NH2 1 mg/kg IV, cinacalcet 10 mg/kg PO
# Method: The therapeutic efficacy of Ac-c(C)arrrar-NH2 (SEQ ID NO:3) was assessed using the 5/6 nephrectomy (Nx) rat model of renal insufficiency. The 5/6 Nx male rats were obtained from Charles River Laboratories (Wilmington, Mass.). These rats have undergone surgical removal of one kidney and ⅔ of the other kidney and were fed a high-phosphate diet. All experimental procedures with animals were performed according to IACUC guidelines. Statistical analysis was performed using one-way ANOVA with Bonferroni post test. All p-values are nominal.
# Tail vein blood samples were taken periodically for measurement of PTH. PTH was measured using the Immutopics BioActive Intact ELISA (Cat #60-2700; Immutopics, San Clemente, Calif.).
# [5] = plasma, Cohort 1, 5 mg single IV bolus, hemodialysis subjects, geometric mean
# [6] = plasma, Cohort 2, 10 mg single IV bolus, hemodialysis subjects, geometric mean
# [7] = plasma, Cohort 3, 20 mg single IV bolus, hemodialysis subjects, geometric mean
# [8] = plasma, Cohort 4, 40 mg single IV bolus, hemodialysis subjects, geometric mean
# [9] = plasma, Cohort 5, 60 mg single IV bolus, hemodialysis subjects, geometric mean
smiles,measurement,setting,value
CC(=O)N[C@H](CSSC[C@H](N)C(=O)O)C(=O)N[C@H](C)C(=O)N[C@H](CCCNC(=N)N)C(=O)N[C@H](CCCNC(=N)N)C(=O)N[C@H](CCCNC(=N)N)C(=O)N[C@H](C)C(=O)N[C@H](CCCNC(=N)N)C(N)=O [Ac-c(C)arrrar-NH2],Clearance (CL) and volume of distribution (Vss) relative to dose,[1]; 5-60 mg single IV bolus,dose-independent
same,total plasma exposure (Cmax and AUCall) relative to dose,[1]; 5-60 mg single IV bolus,reasonably proportional to the administered dose
same,clearance,"[1]; in vivo, intravenous, estimated, hemodialysis subjects, read-out: Hemodialysis clearance (converted)",~550 mL/min
same,AUC,[1]; [5],1080 ng·h/mL
same,Cmax,[1]; [5],133 ng/mL
same,clearance,"[1]; plasma, Cohort 1, 5 mg single IV bolus, hemodialysis subjects, geometric mean, read-out: CL (converted)",28 mL/min
same,half-life,"[1]; plasma, Cohort 1, 5 mg single IV bolus, hemodialysis subjects, geometric mean, read-out: T½ (converted)",121 h
same,Vd,[1]; [5],278 L
same,AUC,[1]; [6],2770 ng·h/mL
same,Cmax,[1]; [6],257 ng/mL
same,clearance,"[1]; plasma, Cohort 2, 10 mg single IV bolus, hemodialysis subjects, geometric mean, read-out: CL (converted)",31.8 mL/min
same,half-life,"[1]; plasma, Cohort 2, 10 mg single IV bolus, hemodialysis subjects, geometric mean, read-out: T½ (converted)",81.7 h
same,Vd,[1]; [6],203 L
same,AUC,[1]; [7],4680 ng·h/mL
same,Cmax,[1]; [7],479 ng/mL
same,clearance,"[1]; plasma, Cohort 3, 20 mg single IV bolus, hemodialysis subjects, geometric mean, read-out: CL (converted)",20.2 mL/min
same,half-life,"[1]; plasma, Cohort 3, 20 mg single IV bolus, hemodialysis subjects, geometric mean, read-out: T½ (converted)",175 h
same,Vd,[1]; [7],293 L
same,AUC,[1]; [8],8890 ng·h/mL
same,Cmax,[1]; [8],686 ng/mL
same,AUC,[1]; [9],14800 ng·h/mL
same,Cmax,[1]; [9],1080 ng/mL
same,clearance,"[1]; plasma, Cohort 5, 60 mg single IV bolus, hemodialysis subjects, geometric mean, read-out: CL (converted)",24.2 mL/min
same,half-life,"[1]; plasma, Cohort 5, 60 mg single IV bolus, hemodialysis subjects, geometric mean, read-out: T½ (converted)",115 h
same,Vd,[1]; [9],232 L
same,half-life,"[1]; plasma, across the dose range 5-60 mg single IV bolus, read-out: geometric mean terminal elimination half-life",81.7 to 175 h
same,clearance,"[1]; plasma, single IV bolus, hemodialysis subjects, read-out: Total clearance (converted)",~33.3 mL/min
same,"corrected calcium level, lowest in any subject at any time during the study",[2],≥ 7.5 mg/dL
same,Adverse Event: Anemia,[3]; 5 mg dose cohort,0 (0%)
same,Adverse Event: Congestive heart failure,[3]; 5 mg dose cohort,0 (0%)
same,Adverse Event: Decreased ionized calcium,[3]; 5 mg dose cohort,0 (0%)
same,Adverse Event: Gastro-esophageal reflux,[3]; 5 mg dose cohort,1 (25%)
same,Adverse Event: Injection site pruritis,[3]; 5 mg dose cohort,0 (0%)
same,Adverse Event: Paresthesias,[3]; 5 mg dose cohort,1 (25%)
same,Adverse Event: Pneumonia,[3]; 5 mg dose cohort,0 (0%)
same,Adverse Event: Toothache,[3]; 5 mg dose cohort,0 (0%)
same,Number of subjects with ≧1 AE,[3]; 5 mg dose cohort,1 (25%)
same,Adverse Event: Anemia,[3]; 10 mg dose cohort,0 (0%)
same,Adverse Event: Congestive heart failure,[3]; 10 mg dose cohort,0 (0%)
same,Adverse Event: Decreased ionized calcium,[3]; 10 mg dose cohort,1 (33%)
same,Adverse Event: Gastro-esophageal reflux,[3]; 10 mg dose cohort,0 (0%)
same,Adverse Event: Injection site pruritis,[3]; 10 mg dose cohort,0 (0%)
same,Adverse Event: Paresthesias,[3]; 10 mg dose cohort,0 (0%)
same,Adverse Event: Pneumonia,[3]; 10 mg dose cohort,0 (0%)
same,Adverse Event: Toothache,[3]; 10 mg dose cohort,0 (0%)
same,Number of subjects with ≧1 AE,[3]; 10 mg dose cohort,1 (33%)
same,Adverse Event: Anemia,[3]; 20 mg dose cohort,0 (0%)
same,Adverse Event: Congestive heart failure,[3]; 20 mg dose cohort,0 (0%)
same,Adverse Event: Decreased ionized calcium,[3]; 20 mg dose cohort,0 (0%)
same,Adverse Event: Gastro-esophageal reflux,[3]; 20 mg dose cohort,0 (0%)
same,Adverse Event: Injection site pruritis,[3]; 20 mg dose cohort,0 (0%)
same,Adverse Event: Paresthesias,[3]; 20 mg dose cohort,0 (0%)
same,Adverse Event: Pneumonia,[3]; 20 mg dose cohort,0 (0%)
same,Adverse Event: Toothache,[3]; 20 mg dose cohort,1 (25%)
same,Number of subjects with ≧1 AE,[3]; 20 mg dose cohort,1 (25%)
same,Adverse Event: Anemia,[3]; 40 mg dose cohort,0 (0%)
same,Adverse Event: Congestive heart failure,[3]; 40 mg dose cohort,0 (0%)
same,Adverse Event: Decreased ionized calcium,[3]; 40 mg dose cohort,4 (100%)
same,Adverse Event: Gastro-esophageal reflux,[3]; 40 mg dose cohort,0 (0%)
same,Adverse Event: Injection site pruritis,[3]; 40 mg dose cohort,1 (25%)
same,Adverse Event: Paresthesias,[3]; 40 mg dose cohort,1 (25%)
same,Adverse Event: Pneumonia,[3]; 40 mg dose cohort,0 (0%)
same,Adverse Event: Toothache,[3]; 40 mg dose cohort,0 (0%)
same,Number of subjects with ≧1 AE,[3]; 40 mg dose cohort,4 (100%)
same,Adverse Event: Anemia,[3]; 60 mg dose cohort,0 (0%)
same,Adverse Event: Congestive heart failure,[3]; 60 mg dose cohort,0 (0%)
same,Adverse Event: Decreased ionized calcium,[3]; 60 mg dose cohort,2 (50%)
same,Adverse Event: Gastro-esophageal reflux,[3]; 60 mg dose cohort,0 (0%)
same,Adverse Event: Injection site pruritis,[3]; 60 mg dose cohort,0 (0%)
same,Adverse Event: Paresthesias,[3]; 60 mg dose cohort,0 (0%)
same,Adverse Event: Pneumonia,[3]; 60 mg dose cohort,0 (0%)
same,Adverse Event: Toothache,[3]; 60 mg dose cohort,0 (0%)
same,Number of subjects with ≧1 AE,[3]; 60 mg dose cohort,2 (50%)
same,tolerability,[3]; single IV bolus 5-60 mg,very well-tolerated
same,"reports of nausea, vomiting or diarrhea","[3]; single IV bolus 5-60 mg, 7 days after administration",no reports
C[C@@H](NCCCc1cccc(C(F)(F)F)c1)c1cccc2ccccc12 [cinacalcet],PTH levels (in words),[4]; 6 hours after the last dosing,reduced
same,PTH levels (in words),[4]; 16 hours after the last dosing,increased
same,PTH levels (in words),[4]; 48 hours after the last dosing,increased
